Values quoted from earlier work, collected in patent publication US10874098B2, “Organ preservation composition” (TX Innovations B.V., priority 2015, dated 2020).

What was measured:
[1] = test system: lung ischemia-reperfusion injury after lung transplantation; settings: intraperitoneal treatment of the donor animal three days before harvesting

Compound	preservation of the transplanted lung [1]	stability in aqueous solutions
NCCS(=O)(=O)O [taurine]	preservation of the transplanted lung in respect to histopathological and biochemical findings	–
C[C@H](N)C(=O)O [L-alanine]	–	spontaneously degrade
L-alanine-L-glutamine	–	more stable in aqueous solutions and does not spontaneously degrade
